# Experimental data: article PMC7571127, “Daurichromenic Acid from the Chinese Traditional Medicinal Plant Rhododendron dauricum Inhibits Sphingomyelin Synthase and Aβ Aggregation” (Molecules, 2020)
# Where two headings read alike, the source gives them in different places.
# What was measured:
# Aβ42 aggregation [1] = target: T1, Aβ42 aggregation (Homo sapiens, UniProt P05067); experiment: Aβ aggregation inhibition, microtiter-scale high-throughput screening (MSHTS) assay; type: biochemical
# T1 construct: 30 nM QD-labeled Aβ40 (QDAβ), and 30 μM Aβ42 in PBS
# Description: Alzheimer’s disease (AD) is a multifactorial disease, which is believed to be caused by complex interactions among several contributing patho-mechanisms. The ability of DCA and its derivatives, along with other natural compounds, ginkgolic acids (8, 9) (Figure 2) and malabaicone A–C (10, 11 and 12), to inhibit Aβ42 aggregation was evaluated by microtiter-scale high-throughput screening (MSHTS) assays. EC50 values were measured from inhibition curves, in which the percent SDs of fluorescence intensities were plotted against the concentration of each compound (Figure 3). Here, 30 nM quantum dot amyloid beta (QDAβ) and 30 µM of Aβ were incubated with different concentrations to evaluate the EC50 of all derivatives. […] The inhibitory activities of the other cyclized DCAs and malabaricones were lower (Figure S2).
# The aggregation inhibitory activities of plant extracts, fractions, DCA, DCA derivatives, and naturally occurring SMS inhibitors (compounds 8, 9, and 10) were measured using a modified MSHTS system. Various concentrations of each were incubated with 30 nM QD-labeled Aβ40 (QDAβ), and 30 μM Aβ42 in PBS containing 5% EtOH and 3% DMSO at 37 °C for 24 h in 1536-well plates (782096, Greiner) (Kremsmünster, Austria). The center of each well as viewed with an inverted fluorescence microscope (TE2000, Nikon)) (Tokyo, Japan) equipped with a color CCD camera (DP72, Olympus) (Tokyo, Japan), and the central region of each well were measured with ImageJ software Ver 1.53b (NIH) to determine the standard deviations (SD) of fluorescence intensities of 40,000 pixels (200 × 200 pixels: 320 × 320 μm). The SD values, which were approximately proportional to the amount of aggregates, were plotted against the concentrations of the putative inhibitors to generate inhibition curves, and the EC50 values were determined.
# Figure 3 (A) Inhibition of Aβ42 aggregation by DCA, its derivatives, and natural sphingomyelin synthase inhibitors, as shown by incubation of 30 nM QDAβ and 30 µM Aβ with various concentrations of these compounds. (B) Estimation of EC50 values from inhibition curves, in which the percent SDs of fluorescence intensities were plotted against the concentrations of these compounds.
# SMS2 = target: T2, SMS2 (Homo sapiens, UniProt Q8NHU3); experiment: SMS assay, cell lysate with fluorescent substrate C6-NBD-Cer (SMS2); type: biochemical
# T2 construct: expressed in transfected cells; host or cells: ZS/SMS2 cells (sonicated lysate)
# T2 sequence (Q8NHU3 1-365): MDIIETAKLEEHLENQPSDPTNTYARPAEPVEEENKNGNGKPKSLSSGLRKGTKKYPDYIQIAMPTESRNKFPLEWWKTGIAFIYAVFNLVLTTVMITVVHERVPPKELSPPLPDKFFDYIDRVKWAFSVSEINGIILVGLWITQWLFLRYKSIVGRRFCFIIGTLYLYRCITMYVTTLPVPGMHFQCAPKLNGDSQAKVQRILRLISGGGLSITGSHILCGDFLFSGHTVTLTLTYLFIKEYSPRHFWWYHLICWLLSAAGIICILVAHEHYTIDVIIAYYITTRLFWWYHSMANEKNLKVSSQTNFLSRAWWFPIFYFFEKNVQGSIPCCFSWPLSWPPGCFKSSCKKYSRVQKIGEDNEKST
# Description: (§1) The ability of DCA and its derivatives to inhibit the SMS isozymes SMS1 and SMS2 was evaluated using a cell lysate assay and the fluorescent substrate C6-NBD (4-nitrobenzo-2-oxa-1,3-diazole)-Cer. […] Thus, the carboxylic acid group of DCAs are essential moieties for their inhibition of SMSs. However, the SMS has not been succeeded in its crystallization. Therefore, a direct comparison with the previously isolated SMS inhibitor ginkgolic acid has been examined. […] Further, a previous report concerning the mode of action for Aβ aggregation inhibition for small molecules gave the insight that the crucial role of a hydrophobic-side hydrocarbon chain and an aromatic ring as well as its two hydrophilic functions causes significant interaction with the amyloid.
# (§2) ZS/SMS1 and ZS/SMS2 cells (protein concentration 0.1 µg/µL) were diluted in 20 mM Tris-buffer (pH 7.5) and sonicated. A 1 µL aliquot of each compound at the desired concentration was added to 100 µL aliquots of the cell lysates and the solutions were incubated at 37 °C for 30 min. A 1 µL aliquot of C6-NBD-ceramide was added to each solution and the solutions were incubated for 3 h at 37 °C. The reactions were stopped by addition of 400 µL of MeOH/CHCl3 [1/2 (v/v)], and the mixtures were shaken and centrifuged at 1500 rpm for 5 min. The formation of C6-NBD-sphingomyelin was quantified by HPLC determination of its peak area. Inhibitory activity was quantified by a reverse-phase HPLC assay using a JACSO HPLC system, equipped with a PU-2089 Plus and FP-2020 Plus set at λex = 470 nm and λem = 530 nm. A 50 × 4.6 YMC-Pack Diol-120-NP column (5-µm particle size) was used with the mobile phase (IPA/hexane/water) at a flow rate of 1.0 mL/min
# (§3) Figure 1 Inhibition of SMS1 and SMS2 activities by (a) DCA (1), (b) derivative (4), (c) derivative (6) and (d) derivative (7). IC50 values were measured using a cell lysate assay. SMS-expressing cell lysates and compounds were incubated for 3 h at 37 °C, and the extracted fluorescent lipids were directly analyzed by HPLC. Each point represents the mean ± SD of triplicate assays.
# SMS1 = target: T3, SMS1 (Homo sapiens, UniProt Q86VZ5); experiment: SMS assay, cell lysate with fluorescent substrate C6-NBD-Cer (SMS1); type: biochemical
# T3 construct: expressed in transfected cells; host or cells: ZS/SMS1 cells (sonicated lysate)
# T3 sequence (Q86VZ5 1-413): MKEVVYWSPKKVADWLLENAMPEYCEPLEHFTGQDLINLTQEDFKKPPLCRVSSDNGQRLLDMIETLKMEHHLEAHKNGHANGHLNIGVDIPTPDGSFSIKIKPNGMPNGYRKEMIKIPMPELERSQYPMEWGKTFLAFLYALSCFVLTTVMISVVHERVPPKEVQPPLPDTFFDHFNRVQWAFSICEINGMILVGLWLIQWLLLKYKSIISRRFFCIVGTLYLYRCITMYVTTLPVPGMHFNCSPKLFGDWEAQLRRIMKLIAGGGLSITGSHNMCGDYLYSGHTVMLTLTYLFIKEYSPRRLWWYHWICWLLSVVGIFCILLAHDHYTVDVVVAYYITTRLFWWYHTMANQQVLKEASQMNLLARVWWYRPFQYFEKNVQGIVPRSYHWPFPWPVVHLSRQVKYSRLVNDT
# Description: as §1, §2, §3
# sphingomyelin synthase = experiment: SMS activity, isozyme not specified (abstract value; fractions of Rhododendron dauricum extract); type: biochemical; details: isozyme not stated, read-out: IC50, inhibition of sphingomyelin synthase activity
# Aβ42 aggregation [2] = target: T1, Aβ42 aggregation; set-up: method as in PMID 23991168; details: comparison value; read-out: EC50 of Aβ aggregation inhibition (MSHTS); cited from earlier work
# [3] = 30 nM QDAβ and 30 µM Aβ42, 37 °C, 24 h, read-out: MHSTS Assay EC50 (inhibition of Aβ42 aggregation)
# [4] = ZS/SMS2 cell lysate, C6-NBD-ceramide, 3 h at 37 °C, HPLC, read-out: SMS Assay (SMS2) IC50
# [5] = ZS/SMS1 cell lysate, C6-NBD-ceramide, 3 h at 37 °C, HPLC, read-out: SMS Assay (SMS1) IC50
# [6] = ZS/SMS2 cell lysate, C6-NBD-ceramide, 3 h at 37 °C, HPLC
# [7] = ZS/SMS1 cell lysate, C6-NBD-ceramide, 3 h at 37 °C, HPLC
# T1 sequence (P05067 672-713 limits assumed): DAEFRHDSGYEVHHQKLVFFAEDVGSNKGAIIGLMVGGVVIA
Compound,EC50 (Aβ42 aggregation [1]; [3]),IC50 (SMS2; [4]),IC50 (SMS1; [5]),SMS Assay (SMS2) IC50 (SMS2; [6]),SMS Assay (SMS1) IC50 (SMS1; [7]),further results
"CCCCCCCCCCCCCCCc1cccc(O)c1C(=O)O [Compound 9, ginkgolic acid, reference compound]",296 µM,2 µM,2 µM,,,
"COC(=O)c1c(C)cc2c(c1OC)C=C[C@](C)(CC/C=C(\C)CCC=C(C)C)O2 [Compound 3, Methyl(S,E)-2-(4,8-dimethylnona-3,7-dien-1-yl)-5-methoxy-2,7-dimethyl-2H-chromene-6 carboxylate]",,,,inactive,inactive,
"Cc1cc2c(c(O)c1C(=O)O)CC1[C@]3(C)CCCC(C)(C)[C@H]3CC[C@]1(C)O2 (single isomer, unassigned; (-)) [Compound 7, (−) Hongoquercin A]",238 µM,5 µM,4 µM,,,
"CC(C)=CCC/C(C)=C/CC[C@@]1(C)C=Cc2c(cc(C)c(C(=O)O)c2O)O1 [Compound 1, Daurichromenic acid]",,,,,,EC50 (Aβ42 aggregation [1]): 57 µM; IC50 (SMS2): 4 µM; IC50 (SMS1): 7 µM; IC50 (sphingomyelin synthase): 4 µM
"CCCCCC/C=C\CCCCCCCc1cccc(O)c1C(=O)O [Compound 8, ginkgolic acid, reference compound]",149 µM,1.5 µM,1.5 µM,,,
"COC(=O)c1c(C)cc2c(c1O)C=C1[C@]3(C)CCCC(C)(C)[C@H]3CC[C@]1(C)O2 [Compound 5, (−)-(5R,8S,10R)-9,15-Didehydro hongoquercin A methyl ester]",,,,inactive,inactive,
"COc1c2c(cc(C)c1C(=O)O)O[C@@](C)(CC/C=C(\C)CCC=C(C)C)C=C2 [Compound 4, (S,E)-2-(4,8-Dimethylnona-3,7-dien-1-yl)-5-methoxy-2,7-dimethyl-2H-chromene-6-carboxylic acid]",74 µM,10 µM,17 µM,,,
O=C(/C=C/c1ccc(O)c(O)c1)O[C@H](Cc1ccc(O)c(O)c1)C(=O)O [rosmarinic acid],,,,,,EC50 (Aβ42 aggregation [2]): 60 µM
"Cc1cc2c(c(O)c1C(=O)O)C=C1[C@]3(C)CCCC(C)(C)[C@H]3CC[C@]1(C)O2 [Compound 6, (−)-(5R,8S,10R)-9,15-Didehydro hongoquercin A]",,7 µM,9 µM,,,
"COC(=O)c1c(C)cc2c(c1O)C=C[C@](C)(CC/C=C(\C)CCC=C(C)C)O2 [Compound 2, Methyl Ester of DCA]",,,,inactive,inactive,
